Data as given in patent EP0623346B1, “INHIBITOR FOR METASTASIS OF MALIGNANT TUMOR” (TORAY INDUSTRIES, INC., priority 1992, dated 1994).
Marks after values point to notes of the source that are not given here.

How the values were obtained:
Mouse Melanoma B16F10 = test: Effectiveness on blood-mediated metastasis in mice of mouse melanoma B16F10 (lung metastasized nodes); assay type: in vivo, C57/BL6 mice; conditions: for Number of Metastasized Nodes (mean ± standard error): simultaneously with 10^6 cells/mouse in tail vein, lung surface nodes counted after 14 days; for Metastasis Inhibition Rate (%): versus control group, p< 0.001
Procedure: [Effectiveness on Blood-mediated Metastasis in Mice of Mouse Melanoma B16F10]
Liquid-cultured mouse melanoma cells were transplanted in tail veins of C57/BL6 mice (6 weeks old, male) in an amount of 10^6 cells/mouse. Simultaneously, beraprost sodium salt was administered intravenously at a dose of 0.03 mg/kg, 0.1 mg/kg or 0.3 mg/kg. To a control group, phosphate buffer saline was administered. Fourteen days after the administration, mice were sacrificed and the lung was removed from each mouse. From the trachea communicating to the lung, 10% neutral buffered formalin solution was poured to inflate the lung, and the lung was immersed in 10% neutral buffered formalin solution to fix the lung. Several days later, each lung was divided and the number of the metastasized nodes on the surface of each leaf was counted with a stereoscopic microscope.
The statistical analysis of this example was carried out according to the student's t-test.

Acute toxicity test = assay type: in vivo, rats; conditions: for LD50: 14 days observation, 95% reliable limit in parentheses, Litchfield-Wilcoxon Method
Procedure: Acute toxicity test was carried out using rats.
The numbers in parentheses indicate 95% reliable limit.

## CC#CCC(C)[C@H](O)/C=C/[C@@H]1[C@H]2c3cccc(CCCC(=O)O)c3O[C@H]2C[C@H]1O (mixture of isomers) [Beraprost, (±)-(1R*, 2R*, 3aS*, 8bS*)-2,3,3a,8b-tetrahydro-2-hydroxy-1-[(E)-(3S*)-3-hydroxy-4-methyl-1-octene-6-inyl]-1H-cyclopenta[b]benzofuran-5-butyric acid]
Mouse Melanoma B16F10; 0.03 mg/kg intravenously
  Number of Metastasized Nodes (mean ± standard error): 204 ± 24
  Metastasis Inhibition Rate (%): 48*** %
Mouse Melanoma B16F10; 0.1 mg/kg intravenously
  Number of Metastasized Nodes (mean ± standard error): 160 ± 28
  Metastasis Inhibition Rate (%): 52*** %
Mouse Melanoma B16F10; 0.3 mg/kg intravenously
  Number of Metastasized Nodes (mean ± standard error): 167 ± 21
  Metastasis Inhibition Rate (%): 49*** %
Mouse Melanoma B16F10; maximum over doses 0.03-0.3 mg/kg intravenously
  maximum inhibition rate of metastasis of B16F10 to mouse lungs: 52%
Acute toxicity test; Intravenous, Female
  LD50: 13 (10-16) mg/kg
Acute toxicity test; Intravenous, Male
  LD50: 18 (15-22) mg/kg
Acute toxicity test; Oral, Female
  LD50: 12 (9-15) mg/kg
Acute toxicity test; Oral, Male
  LD50: 15 (13-19) mg/kg
Acute toxicity test; Subcutaneous, Female
  LD50: 7 ( 6- 9) mg/kg
Acute toxicity test; Subcutaneous, Male
  LD50: 13 (12-14) mg/kg
Acute toxicity test; animals that were killed, common to male and female and to all administration routes
  pathological observation, main findings: slight to medium congestion in lung, slight to medium bleeding in glandular stomach and slight small intestine catarrh
